Patent US11197856B2, “Bicyclic compounds and methods for their use in treating autism” (priority 2013, dated 2021)

Experiments:
synaptophysin = assay: Synaptophysin immunohistochemical staining of hippocampus; assay type: in vivo, male Wistar rats; settings: for density of synaptophysin staining: 28 days post-treatment
Procedure: Aged rats (male Wistar rats, 18-20 months old) were divided into four groups: two vehicle-treated (groups 1 and 3) and two G-2-AllylP treated (groups 2 and 4) (all groups n=6-8). Cyclic G-2-AllylP was synthesised by the Department of Medicinal Chemistry and dissolved in normal saline before the treatment. On day 1 a single dose of cyclic G-2-AllylP was given centrally (20 ng/animal, i.c.v.) to the animals in groups 2 and 4; saline was administered to groups 1 and 3. The memory tests using Novel Object Recognition Test started either on day 3 (groups 1 and 2) or 24 (groups 3 and 4) after the treatment. On the completion of the NORT, the rats were killed with an overdose of sodium pentobarbital and were perfused transcardially with normal saline followed by 10% formalin. Tissues collected at day 7 in groups 1 and 2, and at day 28 from groups 3 and 4. The brains were kept in the same fixative for a minimum of 2 days before being processed using a standard paraffin embedding procedure. Briefly, small blocks (10×10×3 mm) of tissue were fixed for up to 24 hrs. The blocks were then infiltrated and embedded with paraffin and cut in ribbons and mounted on slides. Slides were then stored until immunostaining was commenced. Synaptogenesis in brain tissue was examined using immunohistochemical staining.
Synaptophysin is a presynaptic vesicle protein. Its quantitative detection is established as a molecular marker of synaptic density.
Conventional deparaffinisation and rehydration techniques were used to allow the water-based buffers and antibodies to penetrate the tissue slices. Antigen retrieval was used only prior to AMPA receptor (GluR1) staining, i.e. the slides were placed in boiling citrate buffer and allowed to cool.
The following antibodies were used: • i) primary rabbit antibody to NMDA NR1 subunit, at 1:200 concentration in buffer, incubated for 48 hrs (Chemicon—AB1516), followed by Sigma fluorescent secondary antibody (alexaFluor 394), at 1:200 dilution, incubated for 24 hours at 40C. • ii) primary antibody to AMPA GluR1 subunit, at 1:30 concentration in buffer, incubated for 48 hrs (Chemicon—AB1504) followed by 3,3′-diaminobenzidine (DAB) at 1:200 dilution, incubated for 24 hours at 40C. • iii) Primary antibody to mSynaptophysin (Sigma—S5768), at 1:200 concentration in buffer, followed by DAB at 1:200 dilution, incubated for 24 hours at 40C. • iv) Primary antibody to rKrox-24 (Santa Cruz—catalogue number SC-189) at 1:200 concentration in the buffer, followed by anti-rabbit secondary antibody at concentration of 1:200 dilution, incubated for 24 hours at 40C. • y) Antibodies were detected using light microscopy.
We subsequently analysed effect of cG-2AllylP on the levels of synaptophysin staining in CA3 and CA1 regions of the hippocampus.

p-Akt = assay: Phospho-flow cytometry of lymphocytes, p-Akt; assay type: in vivo; settings: fmr1-knockout mice; 15, 30, 60 and 240 minutes after a single treatment
Excerpt: Lymphocytes are isolated from five fmr1-knockout and five wild-type titter mate control mice, per study time after injection with cG-2-AllylP. Lymphocytes are examined for activation of two signaling effectors, p-ERK1/2 and p-Akt using phosphorylation status as a measure of activation by flow cytometry (phospho-flow).
2. Flow cytometry total and phosphorylated AKT in lymphocytes

Akt = assay: Phosphorylated AKT by Western blot; assay type: in vivo, mice; settings: full brain lysates; fmr1-knockout animals; normalized to GAPDH
Procedure: Phosphorylation levels of ERK1/2 and Akt of full brain lysates were evaluated using Western blots. The mice were sacrificed and the brains removed 12 days after the last injection, and immediately after the last behavioral test. Other studies measured pERK and pAkt in blood lymphocytes. The results of Western analysis were normalized to the amount of GAPDH protein seen in each blot.

[1] = system: fmr1-knockout mice and wild-type littermates; assay: Open Field (OF) test; assay type: in vivo; settings: for exploratory behavior (number of squares entered): fmr1-knockout animals; for number of squares entered: wild-type animals
Procedure: The fmr1-knockout 2 mice (C57BL/6 background) were housed in groups of the same genotype in a temperature and humidity controlled room with a 12-h light-dark cycle (lights on 7 am to […]). Testing was conducted during the light phase. Food and water were available ad libitum. Testing was conducted on fmr1-knockout mice and their wild-type littermates. Experiments were conducted in line with the requirements of the UK Animals (Scientific Procedures) Act, 1986.
The Open Field (OF) test is a combined test that is used to determine anxiety/hyperactivity, and for habituation to a novel environment, one of the most elementary forms of learning, in which decreased exploration as a function of repeated exposure to the same environment is taken as an index of memory. This is normally studied in two sessions of exposure to the open field, a 10-min and a 24 hr habituation session.
The device used for this study is a grey PVC enclosed arena 50×30 cm divided into 10 cm squares. Mice are brought to the experimental room 5-20 min before testing. A mouse is placed into a corner square facing the corner and observed for 3 min. The number of squares entered (whole body) and rears (both front paws off the ground, but not as part of grooming) are counted. The latency to the first rear is also noted. The movement of the mouse around the field was recorded with a video tracking device for 300s (vNT4.0, Viewpoint). The latency for the mouse to enter the brightest, central part of the field total time spent in this central region, and total activity (in terms of path length in centimeters), were recorded.
The open field (OF) test is a test used to characterize explorative behavior, anxiety, and or hyperactivity in animals habituated to daily handling under novel and familiar conditions. During exposure to the open field mice will habituate to the environment and thus explore less, decreasing the amount movement they show over time.
In the present experiment, we recorded movement and rearing during an initial exposure (T1), during a second exposure after 10 minutes (T2) and during a third exposure after 24 hours (T3). Failures to reduce locomotion or rearing at 10 minutes and 24 hours indicate deficits in short and long term memory, respectively.

Q: Which “density of synaptophysin staining” value (synaptophysin; CA1 strata oriens and radiatum) does the source give for `C=CC[C@]12CCCN1C(=O)CNC2=O` [cG-2-AllylP, (8aS)-Allyl-hexahydropyrrolo[1,2-a]pyrazine-1,4-dione] here?
A: The value was “clear trend towards”.

Q: And the “density of synaptophysin staining” value (synaptophysin; CA3)?
A: Its value is “significant increase”.

Q: What about the “density of pre-synaptic stain (FIG. 6)” value (synaptophysin; CA3 region, day 24 post-treatment) of the same molecule?
A: Its value is “trend to increase the density of pre-synaptic stain”.

Q: And the “density of pre-synaptic stain (FIG. 7)” value (synaptophysin; stratum oriens of CA1, day 24 post-treatment)?
A: Its value is “trend to increase the density of the pre-synaptic stain”.

Q: And the “density of pre-synaptic stain (FIG. 8)” value (synaptophysin; stratum radiatum of CA1, day 24 post-treatment)?
A: Its value is “increase the density of the pre-synaptic stain”.

Q: What about the “mean fluorescent intensity (MFI) for p-AKT” value (p-Akt) of the same molecule?
A: The value was “decreases at all time points”.

Q: What about the “phosphorylated AKT” value (Akt) of the same molecule?
A: The value was “about 0.9 UA units”.

Q: And the “exploratory behavior (number of squares entered)” value (from here on “exploratory behavior”) ([1]; T1)?
A: Its value is “significantly reduced the exploratory behavior of fmr1-knockout animals”.

Q: And the “number of squares entered” value ([1]; T1)?
A: The value was “about the same number of squares”.

Q: And the “exploratory behavior” value ([1]; T2 (10 minutes))?
A: The value was “normalized the magnitude of their behavior to that of the wild-type animals”.

Q: And the “number of squares entered” value ([1]; T2 (10 minutes))?
A: Its value is “about 45 squares”.

Q: What about the “exploratory behavior” value ([1]; T3 (24 hours)) of the same molecule?
A: Its value is “normalized exploratory behavior at T3”.

Q: What about the “number of squares entered” value ([1]; T3 (24 hours)) of the same molecule?
A: The value was 25-30 squares.
